Measured values published in patent US8299097B2, “Methods for treating inflammatory disorders” (The Brigham and Women's Hospital, Inc., priority 2008, dated 2012).

Assays:
[1] = system: CHO cells expressing CysLT1R, CysLT2R, or P2Y12 receptors; experiment: Calcium flux in Fura-2-AM-loaded CHO transfectants; format: cell-based, human; details: LTE4 500 nM, ADP 100 μM; ADP response reflects endogenous P2Y receptors
human P2Y12 = human P2Y12 (Homo sapiens, UniProt Q9H244); experiment: Binding of [P^33]2-MesADP and [H^3]LTE4 to membranes of COS-7 cells transfected with the human P2Y12 construct; set-up: polyhistidine (HIS) tag (C); expressed in transfected cells; host or cells: COS-7 cells, transient; details: COS-7 membranes, forward P2Y12 construct
Chain of human P2Y12 (Q9H244 whole entry): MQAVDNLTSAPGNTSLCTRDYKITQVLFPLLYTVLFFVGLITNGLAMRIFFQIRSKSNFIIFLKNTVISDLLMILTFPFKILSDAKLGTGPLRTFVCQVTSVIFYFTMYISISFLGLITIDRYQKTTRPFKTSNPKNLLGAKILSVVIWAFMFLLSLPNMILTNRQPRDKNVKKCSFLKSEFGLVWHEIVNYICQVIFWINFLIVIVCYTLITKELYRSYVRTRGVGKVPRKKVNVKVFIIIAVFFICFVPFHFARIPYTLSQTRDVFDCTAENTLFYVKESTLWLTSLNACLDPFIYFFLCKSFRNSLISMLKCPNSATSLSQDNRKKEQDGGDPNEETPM
Method: FIG. 10. Competitive ligand binding assays. 10A. […] Specific binding (typically 50-75% of the total) was calculated by subtracting the amount of radiolabel that was insensitive to the selective P2Y12 receptor antagonist 2-MesAMP. Nonspecific binding was essentially identical in the membranes with and without P2Y12 receptor knockdown. The dose response for the LAD2 membranes are from a single experiment repeated four times with similar results. The binding on the LAD2 cells with P2Y12 knocked down was repeated twice. 10B. Specific binding of radiolabeled ADP (2000 nM) to membranes of LAD2 cells. […] Results are mean±SD from three separate experiments. 10C. Conversion of radiolabeled LTD4 to LTE4 as confirmed by HPLC (left). […] Results in a second experiment were similar 10D. Competitive binding of radiolabeled 2-MesADP to COS-7 cells transfected with the human P2Y12 construct.
Competitive radioligand binding assays were performed using [H^3]ADP (the known natural ligand of P2Y12 receptors) and unlabeled LTs as competitors. […] The membranes from the transfectants expressing the forward construct bound [P^33]2-MesADP, a selective P2Y12 receptor agonist.

human CysLT1R = target: T1, human CysLT1R (Homo sapiens, UniProt Q9Y271); experiment: ERK activation in CysLT1R CHO transfectants; format: cell-based
T1 construct: expressed in transfected cells
T1 sequence (Q9Y271 1-337): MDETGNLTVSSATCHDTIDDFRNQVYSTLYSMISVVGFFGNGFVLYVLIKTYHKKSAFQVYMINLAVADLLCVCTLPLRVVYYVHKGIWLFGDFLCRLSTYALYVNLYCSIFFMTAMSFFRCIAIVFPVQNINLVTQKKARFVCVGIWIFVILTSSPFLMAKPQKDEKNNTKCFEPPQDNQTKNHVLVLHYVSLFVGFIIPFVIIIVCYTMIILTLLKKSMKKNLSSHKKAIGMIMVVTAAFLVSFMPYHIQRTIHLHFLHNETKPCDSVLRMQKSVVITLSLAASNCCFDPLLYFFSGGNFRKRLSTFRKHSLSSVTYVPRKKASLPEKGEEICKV
Method: FIG. 1. Activation by recombinant human P2Y12 receptors in response to cys-LTs. The human P2Y12 receptor cDNA was cloned in forward and reverse orientation into the expression vector pEF1/His B and transfected into CHO cells using Fugene HD reagent. Stably-expressing clones were selected using G418 (1000 μg/ml), and expression of the construct was confirmed by cytofluorographic detection of the HIS tag. 1A. […] 1B. SDS-PAGE immunoblots showing phosphorylation of ERK2 by CHO cells stably expressing human P2Y12 receptors in reverse (negative control) or forward orientations. […] The blots were stripped and re-probed with an antibody (Ab) recognizing total ERK1 and ERK2. […] 1C. Effect of the selective P2Y12 receptor antagonist 2-MesAMP (MeS) on ligand-induced ERK phosphorylation. P2Y12 receptor expressing CHO cells were stimulated with the same doses of agonists used in 1A, in the absence or presence of 2-MesAMP (100 μM). 1D. Comparison of P2Y12 receptor-mediated responses to cys-LTs with those of recombinant human CysLT1R and CysLT2R expressed in CHO cells, and the effect of the CysLT1R antagonist MK571 (1 μM).
A P2Y12 receptor cDNA was amplified by reverse transcriptase polymerase chain reaction (RT-PCR) from RNA extracted from primary hMCs and cloned into a mammalian expression vector. Expression was confirmed by detection of a histidine (HIS) tag by flow cytometry. […]

LAD2 cells = experiment: Calcium flux of LAD2 cells stimulated with LTD4 or LTE4; format: cell-based, human; details: agonists 500 nM; MK571 1 μM, 2-MesAMP 100 μM
Method: FIG. 2. Requirement for P2Y12 receptors in LTE4-mediated LAD2 cell activation. 2A. Calcium flux of LAD2 cells stimulated with the indicated agonists (500 nM) in the presence or absence of the P2Y12 receptor-selective antagonist 2-MeSAMP (100 μM). […] 2B. […] Cells sensitized overnight with IgE and challenged with anti-IgE were used as the positive control. 2C. […] Results in 2B and 2C are mean±SEM from three independent experiments each. 2D. Effect of shRNA-mediated knockdown of P2Y12 receptor mRNA expression by LAD2 cells.
Pre-treatment of the LAD2 cells with 2-MesAMP blocked the LTE4-mediated increment in MIP-1β production by >50% (FIG. 2B). […] To exclude potential off-target effects of the inhibitors, samples of LAD2 cells were transfected with lentiviruses encoding a P2Y12 sequence-specific shRNA, a CysLT1R-specific shRNA, or an empty vector control before stimulation. […] LTE4- and LTD4-dependent production of PGD2 were abrogated by the knockdowns of P2Y12 and CysLT1R, respectively (FIG. 2C, bottom). Neither GPCR knockdown altered MIP-1β generation or PGD2 production in response to IgE-anti-IgE (FIG. 2C). LTE4-mediated MIP-1β generation (FIG. 9A) and ERK activation (FIG. 9B) were not altered by treatment of LAD2 cells with apyrase to degrade extracellular ADP.
LAD2 cells (0.5-1×10^6/sample) were washed and labeled with fura 2-AM for 30 min at 37° C. […]

| binding of [H^3]LTE4 to membranes (human P2Y12) | competition for [P^33]2-MesADP binding (human P2Y12) | effect on cys-LT-induced ERK activation (human CysLT1R) | Structure (SMILES) | calcium flux [1] | effect on LTD4- or LTE4-mediated calcium flux (LAD2 cells) |
| --- | --- | --- | --- | --- | --- |
| failed to bind | not competed | – | CCCCC/C=C\C\C=C/C=C/C=C/[C@@H](SC[C@H](N)C(=O)O)[C@@H](O)CCCC(=O)O [LTE4] | failed to flux calcium | – |
| – | – | susceptible | CN(C)C(=O)CCSC(SCCC(=O)O)c1cccc(/C=C/c2ccc3ccc(Cl)cc3n2)c1 (stereo not drawn) [MK571] | – | blocked calcium responses |
| – | not competed | – | CCCCC/C=C\C\C=C/C=C/C=C/[C@@H](SC[C@H](N)C(=O)NCC(=O)O)[C@@H](O)CCCC(=O)O [LTD4] | – | – |
